{"source": "patent US12662451B2", "about": "“Chemical compounds and uses thereof” (GLAXOSMITHKLINE INTELLECTUAL PROPERTY (NO.4) LIMITED, priority 2023, dated 2026)", "note": "Structures can show the parent of a compound that is named as a salt.", "data": [{"target": "T1, recombinant full-length WRN protein (1-1432) (Homo sapiens, UniProt Q14191)", "T1 construct": "recombinant full-length WRN protein (1-1432)", "T1 sequence (Q14191 whole entry)": "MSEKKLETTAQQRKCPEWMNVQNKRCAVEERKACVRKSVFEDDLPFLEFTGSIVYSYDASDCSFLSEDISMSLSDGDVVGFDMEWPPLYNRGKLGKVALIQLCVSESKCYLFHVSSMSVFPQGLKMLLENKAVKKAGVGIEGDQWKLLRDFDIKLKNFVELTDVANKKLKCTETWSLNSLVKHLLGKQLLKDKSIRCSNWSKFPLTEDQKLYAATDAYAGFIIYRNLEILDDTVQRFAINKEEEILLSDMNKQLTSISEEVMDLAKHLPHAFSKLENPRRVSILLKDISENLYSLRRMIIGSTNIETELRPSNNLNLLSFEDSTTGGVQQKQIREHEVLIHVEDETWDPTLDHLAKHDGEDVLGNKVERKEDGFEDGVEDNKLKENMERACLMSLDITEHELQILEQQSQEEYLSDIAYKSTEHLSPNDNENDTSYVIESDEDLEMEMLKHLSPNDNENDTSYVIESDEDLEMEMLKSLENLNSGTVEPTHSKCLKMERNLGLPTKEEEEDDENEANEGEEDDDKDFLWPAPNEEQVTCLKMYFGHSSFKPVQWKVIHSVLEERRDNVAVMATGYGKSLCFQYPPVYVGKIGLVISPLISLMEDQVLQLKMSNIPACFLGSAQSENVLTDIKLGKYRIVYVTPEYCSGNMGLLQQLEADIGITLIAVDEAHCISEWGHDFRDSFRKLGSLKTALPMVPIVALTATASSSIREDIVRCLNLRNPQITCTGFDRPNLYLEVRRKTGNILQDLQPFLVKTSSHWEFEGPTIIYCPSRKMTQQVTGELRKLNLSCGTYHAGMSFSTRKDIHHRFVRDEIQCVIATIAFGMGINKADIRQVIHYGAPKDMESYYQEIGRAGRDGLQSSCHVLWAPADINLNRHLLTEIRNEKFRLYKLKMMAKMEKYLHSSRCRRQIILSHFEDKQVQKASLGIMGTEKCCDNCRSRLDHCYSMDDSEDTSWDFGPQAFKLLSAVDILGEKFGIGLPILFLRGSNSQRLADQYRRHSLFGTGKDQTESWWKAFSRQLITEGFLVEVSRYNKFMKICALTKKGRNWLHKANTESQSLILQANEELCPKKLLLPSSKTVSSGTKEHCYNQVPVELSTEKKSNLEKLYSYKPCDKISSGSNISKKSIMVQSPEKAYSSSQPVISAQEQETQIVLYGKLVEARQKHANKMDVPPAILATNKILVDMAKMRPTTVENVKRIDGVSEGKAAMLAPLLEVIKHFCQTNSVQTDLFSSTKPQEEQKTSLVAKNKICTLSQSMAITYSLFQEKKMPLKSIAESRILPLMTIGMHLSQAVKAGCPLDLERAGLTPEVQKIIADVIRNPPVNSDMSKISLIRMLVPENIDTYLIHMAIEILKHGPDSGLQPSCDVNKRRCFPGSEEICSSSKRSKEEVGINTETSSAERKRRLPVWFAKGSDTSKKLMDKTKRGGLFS", "assay": "WRN unwinding activity, fluorogenic 384-well assay (Example A)", "format": "biochemical", "details": "WRN unwinding activity, 4 hr; Table 2; read-out: 4 hr UNW pIC50 (converted)", "summary_of_the_method": "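200 pM enzyme (2× stock) preincubated with compound 4 h at ambient temperature, then 200 μM ATP and 12 nM quenched TAMRA-labelled dsDNA (2× stocks) added for 60 min; EDTA-quenched. Buffer 25 mM Tris pH 8.0, 5 mM NaCl, 2 mM MgCl2. Fluorescence at 525/598 nm; pIC50 from four-parameter fit.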", "units": {"IC50": "nM"}, "values": [{"smiles": "O=C(O)[C@@H]1[C@@H](c2ccc([C@H]3CCCOCC3)cc2)CCC[C@H]1C(=O)Nc1ccc(C(F)(F)F)cc1F", "note": "(racemic) [Example 59, 1:1 Mixture of (1R,2R,6S)-2-((2-fluoro-4-(trifluoromethyl)phenyl)carbamoyl)-6-(4-((S)-oxepan-4-yl)phenyl)cyclohexane-1-carboxylic acid AND (1R,2R,6S)-2-((2-fluoro-4-(trifluoromethyl)phenyl)carbamoyl)-6-(4-((R)-oxepan-4-yl)phenyl)cyclohexane-1-carboxylic acid]", "IC50": 794}, {"smiles": "CN(c1ccc([C@H]2CCC[C@@H](C(=O)Nc3ccc(C(F)(F)F)cc3F)[C@@H]2C(=O)O)cc1)S(=O)(=O)c1ccc2c(c1)ncn2C", "note": "(single isomer, unassigned) [Example 87]", "IC50": 316}, {"smiles": "Cc1nc2cc(S(=O)(=O)N(C)c3ccc([C@H]4CCC[C@@H](C(=O)N[C@H]5CCCC[C@@H]5C)[C@@H]4C(=O)O)cc3)ccc2n1C", "note": "[Example 197, (1R,2R,6S)-2-(((1S,2S)-2-methylcyclohexyl)carbamoyl)-6-(4-((N,1,2-trimethyl-1H-benzo[d]imidazole)-5-sulfonamido)phenyl)cyclohexane-1-carboxylic acid]", "IC50": 2510}, {"smiles": "O=C(O)[C@@H]1[C@@H](c2ccc(CC3(CO)COC3)cc2)CCC[C@H]1C(=O)Nc1ccc(C(F)(F)F)cc1F", "note": "[Example 68, (1R,2R,6S)-2-((2-fluoro-4-(trifluoromethyl)phenyl)carbamoyl)-6-(4-((3-(hydroxymethyl)oxetan-3-yl)methyl)phenyl)cyclohexane-1-carboxylic acid]", "IC50": 1580}, {"smiles": "CCO[C@@H]1C[C@H](C(=O)Nc2ccc(C(F)(F)F)cc2F)[C@@H](C(=O)O)[C@H](c2ccc(N(C)S(=O)(=O)c3ccc4c(c3)nc(C)n4C)cc2)C1", "note": "(single isomer, unassigned) [Example 137]", "IC50": 251}, {"smiles": "Cc1nc2cc(S(=O)(=O)N(C)c3ccc([C@H]4CCC[C@H](C(=O)Nc5ccc(C(C)C)cc5)[C@@H]4C(=O)O)cc3)ccc2n1C", "note": "(racemic) [Example 72, rac-(1R,2S,6S)-2-((4-isopropylphenyl)carbamoyl)-6-(4-((N,1,2-trimethyl-1H-benzo[d]imidazole)-5-sulfonamido)phenyl)cyclohexane-1-carboxylic acid]", "IC50": 3.16}, {"smiles": "CN(c1ccc([C@H]2CCC[C@@H](C(=O)Nc3ccc(C(F)(F)F)cc3F)[C@@H]2C(=O)O)cc1)S(=O)(=O)c1cccc(-c2nnco2)c1", "note": "[Example 105, (1R,2R,6S)-2-((2-fluoro-4-(trifluoromethyl)phenyl)carbamoyl)-6-(4-((N-methyl-3-(1,3,4-oxadiazol-2-yl)phenyl)sulfonamido)phenyl)cyclohexane-1-carboxylic acid]", "IC50": 1.58}, {"smiles": "Cc1nc2cc(S(=O)(=O)N(C)c3ccc([C@@H]4C[C@H](N(C)C)C[C@H](C(=O)Nc5ccc(C(F)(F)F)cc5F)[C@H]4C(=O)O)cc3)ccc2n1C", "note": "(stereo in doubt) [Example 252, rel-(1R,2R,4R,6S)-4-(dimethylamino)-2-((2-fluoro-4-(trifluoromethyl)phenyl)carbamoyl)-6-(4-((N,1,2-trimethyl-1H-benzo[d]imidazole)-5-sulfonamido)phenyl)cyclohexane-1-carboxylic acid]", "IC50": 63.1}, {"smiles": "O=C(O)[C@@H]1[C@@H](c2ccc([C@H]3[C@@H]4CNCC[C@@H]43)cc2)CCC[C@H]1C(=O)Nc1ccc(C(F)(F)F)cc1F", "note": "(racemic) [Example 70]", "IC50": 15800}, {"smiles": "Cc1nc2cc(S(=O)(=O)N(C)c3ccc([C@H]4CCC[C@@H](C(=O)NC5CCC6(CCCC6)CC5)[C@@H]4C(=O)O)cc3)ccc2n1C", "note": "[Example 184, (1R,2R,6S)-2-(spiro[4.5]decan-8-ylcarbamoyl)-6-(4-((N,1,2-trimethyl-1H-benzo[d]imidazole)-5-sulfonamido)phenyl)cyclohexane-1-carboxylic acid, formic acid salt]", "IC50": 631}, {"smiles": "Cc1nc2cc(S(=O)(=O)Nc3ccc([C@H]4CCC[C@@H](C(=O)Nc5ccc(C(F)(F)F)cc5F)[C@@H]4C(=O)O)cc3)ccc2n1C", "note": "(single isomer, unassigned) [Example 223]", "IC50": 158}, {"smiles": "O=C(O)[C@@H]1[C@@H](c2ccc(C3CCS(=O)(=O)C3)cc2)CCC[C@H]1C(=O)Nc1ccc(C(F)(F)F)cc1F", "note": "(single isomer, unassigned) [Example 231, (1R,2S,6R)-2-(4-((R*)-1,1-dioxidotetrahydrothiophen-3-yl)phenyl)-6-((2-fluoro-4-(trifluoromethyl)phenyl)carbamoyl)cyclohexane-1-carboxylic acid]", "IC50": 316}, {"smiles": "O=C(O)[C@@H]1[C@@H](c2ccc(-c3ncsc3CO)cc2)CCC[C@H]1C(=O)Nc1ccc(C(F)(F)F)cc1F", "note": "[Example 52, (1R,2R,6S)-2-((2-fluoro-4-(trifluoromethyl)phenyl)carbamoyl)-6-(4-(5-(hydroxymethyl)thiazol-4-yl)phenyl)cyclohexane-1-carboxylic acid]", "IC50": 794}, {"smiles": "O=C(O)[C@@H]1[C@@H](c2ccc(-c3ccc4nncn4n3)cc2)CCC[C@H]1C(=O)Nc1ccc(C(F)(F)F)cc1F", "note": "[Example 30, (1R,2S,6R)-2-(4-([1,2,4]triazolo[4,3-b]pyridazin-6-yl)phenyl)-6-((2-fluoro-4-(trifluoromethyl)phenyl)carbamoyl)cyclohe xane-1-carboxylic acid]", "IC50": 6310}, {"smiles": "O=C(O)[C@@H]1[C@@H](c2ccc(-c3csnc3CO)cc2)CCC[C@H]1C(=O)Nc1ccc(C(F)(F)F)cc1F", "note": "[Example 50, (1R,2R,6S)-2-((2-fluoro-4-(trifluoromethyl)phenyl)carbamoyl)-6-(4-(3-(hydroxymethyl)isothiazol-4-yl)phenyl)cyclohexane-1-carboxylic acid]", "IC50": 7.94}, {"smiles": "CC#Cc1cc([C@H]2CCC[C@@H](C(=O)Nc3ccc(C(F)(F)F)cc3F)[C@@H]2C(=O)O)ccc1C(F)(F)F", "note": "(racemic) [Example 240, rac-(1R,2R,6S)-2-((2-fluoro-4-(trifluoromethyl)phenyl)carbamoyl)-6-(3-(prop-1-yn-1-yl)-4-(trifluoromethyl)phenyl)cyclohexane-1-carboxylic acid]", "IC50": 3980}, {"smiles": "Cc1nc2cc(S(=O)(=O)N(C)c3ccc([C@@H]4C[C@@H](N5CCOCC5)C[C@H](C(=O)Nc5ccc(C(F)(F)F)cc5F)[C@H]4C(=O)O)cc3)ccc2n1C", "note": "(relative stereo) [Example 339, rel-(1R,2R,4S,6S)-2-((2-fluoro-4-(trifluoromethyl)phenyl)carbamoyl)-4-morpholino-6-(4-((N,1,2-trimethyl-1H-benzo[d]imidazole)-5-sulfonamido)phenyl)cyclohexane-1-carboxylic acid]", "IC50": 631}, {"smiles": "O=C(O)[C@@H]1[C@@H](c2ccc([C@H]3CC34CCOCC4)cc2)CCC[C@H]1C(=O)Nc1ccc(C(F)(F)F)cc1F", "note": "(racemic) [Example 65, 1:1 Mixture of (1R,2S,6R)-2-(4-((S)-6-oxaspiro[2.5]octan-1-yl)phenyl)-6-((2-fluoro-4-(trifluoromethyl)phenyl)carbamoyl)cyclohexane-1-carboxylic acid AND (1R,2S,6R)-2-(4-((R)-6-oxaspiro[2.5]octan-1-yl)phenyl)-6-((2-fluoro-4-(trifluoromethyl)phenyl)carbamoyl)cyclohexane-1-carboxylic acid]", "IC50": 50.1}, {"smiles": "Cc1nc2cc(S(=O)(=O)N(C)c3ccc([C@H]4CCC[C@@H](C(=O)NC56CC(C7CCC7)(C5)C6)[C@@H]4C(=O)O)cc3)ccc2n1C", "note": "[Example 198, (1R,2R,6S)-2-((3-cyclobutylbicyclo[1.1.1]pentan-1-yl)carbamoyl)-6-(4-((N,1,2-trimethyl-1H-benzo[d]imidazole)-5-sulfonamido)phenyl)cyclohexane-1-carboxylic acid]", "IC50": 5.01}, {"smiles": "CN(c1ccc([C@H]2CCC[C@@H](C(=O)Nc3ccc(C(F)(F)F)cc3F)[C@@H]2C(=O)O)cc1)S(=O)(=O)c1ccc2[nH]cnc2c1", "note": "(single isomer, unassigned) [Example 85]", "IC50": 251}, {"smiles": "CC(C)(O)C#Cc1cc([C@H]2CCC[C@@H](C(=O)Nc3ccc(C(F)(F)F)cc3F)[C@@H]2C(=O)O)ccc1C(F)(F)F", "note": "(racemic) [Example 239, rac-(1R,2R,6S)-2-((2-fluoro-4-(trifluoromethyl)phenyl)carbamoyl)-6-(3-(3-hydroxy-3-methylbut-1-yn-1-yl)-4-(trifluoromethyl)phenyl)cyclohexane-1-carboxylic acid]", "IC50": 251}, {"smiles": "O=C(O)[C@@H]1[C@@H](c2ccc(-c3cccc(O)n3)cc2)CCC[C@H]1C(=O)Nc1ccc(C(F)(F)F)cc1F", "note": "[Example 14, (1R,2R,6S)-2-((2-fluoro-4-(trifluoromethyl)phenyl)carbamoyl)-6-(4-(6-hydroxypyridin-2-yl)phenyl)cyclohexane-1-carboxylic acid]", "IC50": 7.94}, {"smiles": "Cc1nc2cc(S(=O)(=O)N(C)c3ccc([C@@H]4CNC[C@H](C(=O)Nc5ccc(C(F)(F)F)cc5F)[C@H]4C(=O)O)cc3)ccc2n1C", "note": "(single isomer, unassigned) [Example 307]", "IC50": 631}, {"smiles": "Cc1nc2cc(S(=O)(=O)N(C)c3ccc([C@H]4CCC[C@@H](COc5ccc(C(F)(F)F)cc5)[C@@H]4C(=O)O)cc3)ccc2n1C", "note": "[Example 205, (1R,2R,6S)-2-((4-(trifluoromethyl)phenoxy)methyl)-6-(4-((N,1,2-trimethyl-1H-benzo[d]imidazole)-5-sulfonamido)phenyl)cyclohexane-1-carboxylic acid]", "IC50": 25.1}, {"smiles": "Cc1nc2cc(S(=O)(=O)N(C)c3ccc([C@H]4C[C@@H](O)C[C@@H](C(=O)Nc5ccc(C(F)(F)F)cc5F)[C@H]4C(=O)O)cc3)ccc2n1C", "note": "(single isomer, unassigned) [Example 142]", "IC50": 2000}, {"smiles": "O=C(O)[C@@H]1[C@@H](c2ccc(CCN3CCNC3=O)cc2)CCC[C@H]1C(=O)Nc1ccc(C(F)(F)F)cc1F", "note": "[Example 60, (1R,2R,6S)-2-((2-fluoro-4-(trifluoromethyl)phenyl)carbamoyl)-6-(4-(2-(2-oxoimidazolidin-1-yl)ethyl)phenyl)cyclohexane-1-carboxylic acid]", "IC50": 2510}]}]}
